Where two headings read alike, the source gives them in different places.
Assays:
[1] = known Hsp90 inhibitors, cited from earlier work
[2] = cited from earlier work
[3] = system: tau phosphorylation at pathological sites; experiment: Tau phosphorylation in AD cellular models; format: cell-based
p35 = experiment: p35, Tau phosphorylation and Hsp70 in primary rat cortical neurons and COS-7/p35, COS-7/p35/Tau cells; format: cell-based; conditions: compared with PU24FC1
Excerpt: Embryonic primary rat cortical neurons and COS-7 cells transfected with cDNAs corresponding to either p35 alone (COS-7/p35) or both p35 and Tau (COS-7/p35/Tau) are relevant experimental systems to study aberrant neuronal kinase activity because phosphorylation of Tau at putative cdk5 sites is both enhanced in these cells and in embryonic and juvenile brains (50, 52) and is similar to that in AD-afflicted brains (50). […]
To further examine the roles played by Hsp90 in tauopathy, we made use of both PU24FC1 and 17-(allyllamino)-17-demethoxygeldanamycin (17AAG) and investigated their effects on both cdk5/p35 and TauP301L in primary neuronal and COS-7 cell cultures. […] After incubation, cells were harvested and lysed in 2% SDS, and the resulting samples were analyzed by Western blotting.
We detected a dose- and time-dependent degradation of p35 by PU24FC1 in primary neurons, as well as in COS-7/p35 and COS-7/p35/Tau cells. […] Reduction of p35 levels by Hsp90 inhibition affected the activity of the cdk5/p35 complex, as measured using a substrate of cdk5, the histone-H1.

P-glycoprotein = P-glycoprotein (Homo sapiens (Human), UniProt P08183); conditions: known Hsp90 inhibitor, cited from earlier work
Chain of P-glycoprotein (P08183 whole entry): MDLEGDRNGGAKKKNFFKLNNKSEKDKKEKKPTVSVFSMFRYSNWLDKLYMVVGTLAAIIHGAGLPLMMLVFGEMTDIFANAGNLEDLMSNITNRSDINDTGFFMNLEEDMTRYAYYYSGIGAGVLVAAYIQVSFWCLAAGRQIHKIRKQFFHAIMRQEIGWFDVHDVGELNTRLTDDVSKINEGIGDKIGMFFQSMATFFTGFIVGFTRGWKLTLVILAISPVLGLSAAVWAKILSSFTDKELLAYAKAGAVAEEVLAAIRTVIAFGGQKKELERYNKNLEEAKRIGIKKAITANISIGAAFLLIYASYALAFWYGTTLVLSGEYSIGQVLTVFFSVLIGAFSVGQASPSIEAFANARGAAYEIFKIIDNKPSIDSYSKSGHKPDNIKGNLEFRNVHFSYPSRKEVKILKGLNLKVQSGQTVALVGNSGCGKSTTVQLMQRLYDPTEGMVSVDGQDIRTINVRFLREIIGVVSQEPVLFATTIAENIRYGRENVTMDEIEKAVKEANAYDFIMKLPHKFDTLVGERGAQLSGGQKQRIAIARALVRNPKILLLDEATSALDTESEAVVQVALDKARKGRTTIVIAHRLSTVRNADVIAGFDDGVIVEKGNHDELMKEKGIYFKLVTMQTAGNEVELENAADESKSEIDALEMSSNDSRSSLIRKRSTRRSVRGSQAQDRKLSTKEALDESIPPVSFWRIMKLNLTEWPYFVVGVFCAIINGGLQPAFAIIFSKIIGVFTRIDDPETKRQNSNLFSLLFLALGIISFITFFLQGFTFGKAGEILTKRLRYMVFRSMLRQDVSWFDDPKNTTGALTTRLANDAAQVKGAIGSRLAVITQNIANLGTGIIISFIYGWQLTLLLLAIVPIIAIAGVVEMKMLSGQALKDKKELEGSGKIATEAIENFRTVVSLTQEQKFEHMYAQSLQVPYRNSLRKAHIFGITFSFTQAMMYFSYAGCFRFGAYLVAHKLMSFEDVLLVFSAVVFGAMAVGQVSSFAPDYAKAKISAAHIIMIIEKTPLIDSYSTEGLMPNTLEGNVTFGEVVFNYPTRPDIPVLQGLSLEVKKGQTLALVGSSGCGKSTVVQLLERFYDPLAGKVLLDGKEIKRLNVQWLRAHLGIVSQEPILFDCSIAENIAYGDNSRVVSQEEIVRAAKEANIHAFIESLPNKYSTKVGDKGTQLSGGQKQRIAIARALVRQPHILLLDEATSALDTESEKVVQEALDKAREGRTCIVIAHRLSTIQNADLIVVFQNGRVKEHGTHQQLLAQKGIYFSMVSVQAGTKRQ

Row | Compound | crossing of the blood-brain barrier [1] | solubility [2] | tau phosphorylation levels at pathological sites [3] | effects on p35 and mTau (p35) | P-gp substrate (P-glycoprotein) | P-gp substrate (P-glycoprotein; listed as 17-AAG) | crossing of the blood-brain barrier ([1]; listed as 17-AAG)
1 | C[C@@H]1C[C@H]2O[C@@H]2/C=C\C=C\C(=O)Cc2c(Cl)c(O)cc(O)c2C(=O)O1 [radicicol] | do not cross the blood-brain barrier | poorly soluble | – | – | – | – | –
2 | COC1=C2C[C@@H](C)C[C@H](OC)[C@H](O)[C@@H](C)/C=C(\C)[C@H](OC(N)=O)[C@@H](OC)/C=C\C=C(/C)C(=O)NC(=CC1=O)C2=O [geldanamycin] | do not cross the blood-brain barrier | poorly soluble | reduced | – | – | – | –
3 | C=CCNC1=C2C[C@@H](C)C[C@H](OC)[C@H](O)[C@@H](C)/C=C(\C)[C@H](OC(N)=O)[C@@H](OC)/C=C\C=C(/C)C(=O)NC(=CC1=O)C2=O [Compound 17AAG, 17-(allyllamino)-17-demethoxygeldanamycin] | do not cross the blood-brain barrier | poorly soluble | – | Analogous effects | P-gp substrate | P-glycoprotein substrate | does not effectively cross the blood brain barrier

— patent US10336757B2, “Treatment of neurodegenerative diseases through inhibition of HSP90” (Sloan-Kettering Institute for Cancer Research, priority 2006, dated 2019)
